Columns and labels:
[1] = tested on: rabbit 20S proteasome β5 (CT‐L); design: method as in PMID 24452398, PMID 21946808; conditions: Figure 2; cited from earlier work
[2] = biological target: T1, human constitutive proteasome, β5 subunit (CT‐L) (Homo sapiens, UniProt P20618+P28074); assay: In vitro 20S proteasome chymotrypsin‐like (CT‐L, β5) inhibition assay; assay type: biochemical; conditions: CT‐L activity, substrate Suc‐LLVY‐AMC; mean ± SD of three independent experiments
T1 construct: gift of Dr. Jiang-ping Wu (Notre-Dame Hospital, Montreal)
Method: (§1) The human constitutive proteasome was generously provided by Dr. Jiang‐ping Wu (Notre‐Dame Hospital, Montreal, QC, Canada). […] The proteasome activity assay was performed in a total volume of 50 μL, with all samples diluted in Tris–HCl buffer (100 mM Tris–HCl, pH 8.0). […] 10 μL purified human proteasome (25 μg/mL) was added to 1 μL of each compound; after incubation for 15 min, the mixture was combined with 39 μL of the fluorogenic substrate. […] The IC50 values were calculated using the software GraphPad Prism4, employing the “sigmoidal dose–response (variable slope)” equation for curve fitting.

[3] = biological target: proteasome β1 subunit (C‐L) (Homo sapiens, UniProt P28072+Q99436); assay: Proteasome caspase‐like (C‐L, β1) inhibition; assay type: biochemical; conditions: C‐L activity; mean ± SD of three independent experiments
Method: as §1

[4] = biological target: proteasome β2 subunit (T‐L) (Homo sapiens, UniProt P49720+Q99436); assay: Proteasome trypsin‐like (T‐L, β2) inhibition; assay type: biochemical; conditions: T‐L activity; mean ± SD of three independent experiments
Method: as §1

[5] = tested on: MV‐4‐11 cells; assay: Cell proliferation inhibition assay (CCK8), MV‐4‐11; assay type: cell-based; conditions: Homo sapiens, MV4-11, 72 h, mean ± SD
Method: (§2) MV‐4‐11 cells (1 × 10^4 cells/well), RPMI‐8226 cells (8 × 10^3 cells/well), Molt4 cells (2 × 10^3 cells/well), RS4;11 cells (2 × 10^4 cells/well), and PBMC cells (2 × 10^4 cells/well) were seeded in 96‐well plates (Corning, 3599). Cells were treated with either 0.2% DMSO or fivefold dilutions of compounds from 10 mM stock solutions in DMSO (0.2% final concentration of DMSO) for 72 h. 10 μL of CCK8 reagent was added to each well, and the plates were incubated at 37°C for 3 h. Absorbance was measured at 450 nm and 650 nm using a Spectra Max Molecular Devices microplate reader. The final data were calibrated by OD450 nm‐OD650 nm.

[6] = tested on: RPMI‐8226 cells; assay: Cell proliferation inhibition assay (CCK8), RPMI‐8226; assay type: cell-based; conditions: Homo sapiens, 72 h, mean ± SD
Method: as §2

[7] = tested on: Molt4 cells; assay: Cell proliferation inhibition assay (CCK8), Molt4; assay type: cell-based; conditions: Homo sapiens, MOLT-4, 72 h, mean ± SD
Method: as §2

[8] = tested on: RS4;11 cells; assay: Cell proliferation inhibition assay (CCK8), RS4;11; assay type: cell-based, human; conditions: mean ± SD
Method: as §2

[9] = tested on: normal peripheral blood mononuclear cells (PBMC); assay: Cell proliferation inhibition assay (CCK8), PBMC; assay type: cell-based; conditions: 72 h, mean ± SD, read-out: IC50 PBMC‐3Day
Method: as §2

[10] = tested on: RS4;11 cells; assay: Apoptosis assay by flow cytometry; assay type: cell-based, human; conditions: 1, 2 and 4 μM, 12 h
Method: (§3) Apoptosis was assessed using an Annexin V‐APC/7AAD apoptosis detection kit (GA1023‐KGA1026, Keygentec, Nanjing, China), followed by flow cytometry analysis. Briefly, cells were treated with the indicated drug concentration and durations or left untreated, then washed twice with PBS, stained with Annexin V‐APC/7AAD, and analyzed using flow cytometry (CytoFLEX flow cytometer, Beckman Coulter Inc.). RS4;11 cells were exposed to various concentrations of the compound or DMSO. Protein lysates were prepared using 4 × Laemmli sample buffer (161073, BIORAD, Richmond, USA). Protein samples were separated by SDS‐polyacrylamide gel electrophoresis (BIO‐RAD, Richmond, USA) and subsequently transferred to nitrocellulose (NC) membranes. Following a 90‐min blocking step with 5% skim milk at room temperature, the NC membranes were incubated with the primary antibody at 4 °C overnight, followed by three washes with TBST for 10 min each. The NC membranes were then incubated with secondary antibodies for 1.5 h at room temperature. Signals were detected by ECL (KF8001&KF8003, Affinity, China) using the BIO‐RAD ChemiDoc Touch Imaging System.

[11] = tested on: RS4;11 cells; assay: Western blot of apoptosis‐related and ubiquitinated proteins; assay type: cell-based, human
Method: as §3

CC[C@H](C)[C@@H]1C(=O)O[C@H]1C(=O)NCCC[C@H](NC(=O)[C@H](C)N)C(=O)O [Belactosin C]
IC50 [1]: 210 nM

C[C@H](NC(=O)c1cccnc1)C(=O)N[C@@H](CCc1ccccc1)C(=O)N[C@@H]1CN(c2ccc(F)cc2)C1=O [Compound 70]
IC50 [2]: > 10000 nM

Cc1ccc(N2C[C@@H](NC(=O)[C@H](CCc3ccccc3)NC(=O)[C@H](CC(=O)NCC(C)(C)C)NC(=O)c3cccnc3)C2=O)cc1 [Compound 76, (S)‐N ^4‐Neopentyl‐2‐(nicotinamido)‐N ^1‐[(S)‐1‐oxo‐1‐{[(R)‐2‐oxo‐1‐(p‐tolyl)azetidin‐3‐yl]amino}‐4‐phenylbutan‐2‐yl]succinamide]
IC50 [2]: 72 ± 14.9 nM
IC50 [3]: > 10000 nM
IC50 [4]: > 10000 nM
IC50 [5]: > 20000 nM
IC50 [6]: 8050 ± 1170 nM
IC50 [7]: > 10000 nM
IC50 ([8]; Homo sapiens, RS4-11, 72 h): 860 ± 240 nM

CN(C)c1ccc(N2C[C@@H](NC(=O)[C@H](CCc3ccccc3)NC(=O)[C@H](CC(=O)NCC(C)(C)C)NC(=O)c3cccnc3)C2=O)cc1 [Compound 77, (S)‐N ^1‐[(S)‐1‐{[(R)‐1‐[4‐(Dimethylamino)phenyl]‐2‐oxoazetidin‐3‐yl]amino}‐1‐oxo‐4‐phenylbutan‐2‐yl]‐N ^4‐neopentyl‐2‐(nicotinamido)succinamide]
IC50 [2]: 132 ± 14.8 nM
IC50 [3]: > 10000 nM
IC50 [4]: > 10000 nM

CC(C)(C)CNC(=O)C[C@H](NC(=O)c1cccnc1)C(=O)N[C@@H](CCc1ccccc1)C(=O)N[C@@H]1CN(c2ccc(C(F)(F)F)cc2)C1=O [Compound 79, (S)‐N ^4‐Neopentyl‐2‐(nicotinamido)‐N ^1‐[(S)‐1‐oxo‐1‐{[(R)‐2‐oxo‐1‐[4‐(trifluoromethyl)phenyl]azetidin‐3‐yl]amino}‐4‐phenylbutan‐2‐yl]succinamide]
IC50 [2]: 282 ± 33.6 nM
IC50 [3]: > 10000 nM
IC50 [4]: > 10000 nM
IC50 [5]: 2750 ± 460 nM
IC50 [6]: 3440 ± 440 nM
IC50 [7]: 2370 ± 230 nM
IC50 ([8]; Homo sapiens, RS4-11, 72 h): 990 ± 170 nM

CC(C)(C)CNC(=O)C[C@H](NC(=O)c1cnccn1)C(=O)N[C@@H](CCc1ccccc1)C(=O)N[C@H]1CN(c2ccc(F)cc2)C1=O [Compound 69]
IC50 [2]: 288 ± 57.2 nM
IC50 [3]: > 10000 nM
IC50 [4]: > 10000 nM
IC50 [5]: > 20000 nM
IC50 [6]: 10200 ± 760 nM
IC50 [7]: > 10000 nM
IC50 ([8]; Homo sapiens, RS4-11, 72 h): 1520 ± 670 nM

COc1ccc(N2CC(NC(=O)C(CCc3ccccc3)NC(=O)C(CC(=O)NCC(C)(C)C)NC(=O)c3cccnc3)C2=O)cc1 [Compound 78, (S)‐N ^1‐[(S)‐1‐{[(R)‐1‐(4‐Methoxyphenyl)‐2‐oxoazetidin‐3‐yl]amino}‐1‐oxo‐4‐phenylbutan‐2‐yl]‐N ^4‐neopentyl‐2‐(nicotinamido)succinimide]
IC50 [2]: 142 ± 30.1 nM
IC50 [3]: > 10000 nM
IC50 [4]: > 10000 nM
IC50 [5]: 2780 ± 410 nM
IC50 [6]: 2340 ± 340 nM
IC50 [7]: 3780 ± 270 nM
IC50 ([8]; 72 h): 500 ± 130 nM
IC50 ([8]; Homo sapiens, RS4-11, 72 h): < 1000 nM
IC50 [9]: 17200 ± 1930 nM
induction of apoptosis in RS4;11 cells [10]: triggered cell apoptosis in a dose‐dependent manner
activation and cleavage of caspase‐3 and PARP ([11]; RS4;11, 1, 2 and 4 μM, 8 h, western blot): detectable across all samples
accumulation of poly‐ubiquitinated proteins ([11]; RS4;11, western blot): significant accumulation of poly‐ubiquitinated proteins

CC(C)[C@H](NC(=O)c1cccnc1)C(=O)N[C@@H](CCc1ccccc1)C(=O)N[C@@H]1CN(c2ccc(F)cc2)C1=O [Compound 72]
IC50 [2]: > 10000 nM

O=C(N[C@@H](CCc1ccccc1)C(=O)N[C@@H](CCc1ccccc1)C(=O)N[C@@H]1CN(c2ccc(F)cc2)C1=O)c1cccnc1 [Compound 73]
IC50 [2]: > 10000 nM

CC(C)(C)CNC(=O)C[C@H](NC(=O)c1cnccn1)C(=O)N[C@@H](CCc1ccccc1)C(=O)N[C@@H]1CN(c2ccc(F)cc2)C1=O [Compound 68]
IC50 [2]: > 10000 nM

CC(C)C[C@H](NC(=O)[C@H](Cc1ccccc1)NC(=O)c1cnccn1)B(O)O [Bortezomib, reference compound]
IC50 [5]: 5.15 ± 1.09 nM
IC50 [6]: 3.64 ± 0.52 nM
IC50 [7]: 13.3 ± 2.47 nM
IC50 ([8]; Homo sapiens, RS4-11, 72 h): 5.87 ± 0.93 nM
IC50 [9]: 1.57 ± 0.19 nM

CSCC[C@H](NC(=O)c1cccnc1)C(=O)N[C@@H](CCc1ccccc1)C(=O)N[C@@H]1CN(c2ccc(F)cc2)C1=O [Compound 75]
IC50 [2]: > 10000 nM

C[C@H](NC(=O)c1cnccn1)C(=O)N[C@@H](CCc1ccccc1)C(=O)N[C@@H]1CN(c2ccc(F)cc2)C1=O [Compound 71]
IC50 [2]: > 10000 nM

O=C(N[C@@H](Cc1ccccc1)C(=O)N[C@@H](CCc1ccccc1)C(=O)N[C@@H]1CN(c2ccc(F)cc2)C1=O)c1cccnc1 [Compound 74]
IC50 [2]: > 10000 nM
